Values after ≈ are worked out from the molar mass of the structure shown.
Tests used:
[1] = test system: Magnaporthe grisea = Pyricularia oryzae (PYRIOR); experiment: whole plant or invertebrate; type: in vivo; conditions: foliar, read-out: Activity against fungal diseases PYRIOR
[2] = test system: Colorado Potato Beetle (Leptinotarsa decemlineata, LPTNDE); experiment: Colorado Potato Beetle larvae on sprayed tomato leaves; type: in vivo; conditions: foliar, 72 h, L2 larvae on sprayed tomato foliage, mortality after three days
Experimental: Formulated test compounds were diluted and sprayed onto leaves of tomato plants. When dry, plant foliage was removed from the plant and placed in 8-well agar trays. Five L2 Colorado potato beetle larvae were placed in each well, and the trays were sealed and incubated at 26° C. Mortality was evaluated after three days.

[3] = test system: Septoria tritici (SEPTTR); experiment: Septoria blotch of wheat foliar protectant test; type: in vivo; conditions: Zymoseptoria tritici, read-out: Activity against fungal diseases SEPTTR; for pest or weed control at 200 ppm: 200 ppm foliar, inoculated one day after treatment; for pest or weed control at 25 ppm: foliar, Tested at 25 ppm (footnote b)
Summary of the method: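 Wheat seedlings (3-10 per pot) were sprayed to wet with formulated compound and inoculated next day with Septoria tritici spores. Plants then had 1 day in a dark dew chamber and 3 days in a lighted one before greenhouse incubation. Severity versus untreated inoculated plants gave percent control, scored *** 80-100%, ** 50-79%, * 0-49%.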

[4] = test system: Puccinia recondita tritici (PUCCRT); experiment: Leaf rust of wheat foliar protectant test; type: in vivo; conditions: 200 ppm foliar, inoculated one day after treatment, read-out: Activity against fungal diseases PUCCRT
Summary of the method: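 Wheat seedlings (3–8 per pot) were sprayed to wet with formulated compound and inoculated the next day with an aqueous Puccinia recondita tritici spore suspension. Severity was converted to % control versus untreated inoculated plants and rated *** 80–100%, ** 50–79%, * 0–49%.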

[5] = Mouse oral exposure (gavage), 14 days; design: species or system mice; conditions: female, CD-1/Swiss derived albino, in vivo, 5% w/v in 0.5% carboxymethylcellulose, monitored 14 days
Experimental: The effect on mice of oral exposure was determined for compounds differing only in the number of fluorine substituents on the quinazoline ring, as shown in Table 5. Three CD-1/Swiss derived albino female mice were administered compounds by gavage as a 5% w/v mixture in 0.5% carboxymethylcellulose solution. The animals were monitored for 14 days.

[6] = test system: Pseudoperonospora cubensis (PSPECU); experiment: Cucumber downy mildew foliar protectant test; type: in vivo; conditions: 200 ppm foliar, inoculated one day after treatment, read-out: Activity against fungal diseases PSPECU
Summary of the method: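 Cucumber seedlings, first true leaf 20-80% expanded, were sprayed to wetness with formulated compound and inoculated next day with aqueous sporangia suspension. Severity was converted to percent control versus untreated inoculated plants: ***=80-100%, **=50-79%, *=0-49%.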

[7] = test system: Caenorhabditis elegans; conditions: 10 micrograms per milliliter agar, 24 h at 20° C.
Experimental: The activity of the compounds against Caenorhabditis elegans was determined by dissolving compounds in DMSO, then applying them to petri dishes containing Nematode Growth Medium agar to a final concentration of 10 μg compound per milliliter agar. Escherichia coli bacteria were grown on the plates to provide a food source for the larvae of Caenorhabditis elegans. The bacteria were heat-killed at 65° C. before compounds were added to the plates.
The plates with compound and heat-killed bacteria were infested with 10 microliter drops containing eggs from wild-type Caenorhabditis elegans worms. Adult worms were dissolved in KOH and bleach and washed in Ringers solution to generate the egg suspension. Each compound was screened with approximately 400 eggs, divided between two petri dishes. Egg hatching was evaluated after 24 h at 20° C. Mortality was averaged over the two plates.

[8] = test system: Puccinia triticina (PUCCRT); experiment: Synergy with pyraclostrobin or epoxiconazole against wheat leaf rust; conditions: alone
Experimental: (§1) The compound was evaluated in mixtures with pyraclostrobin, or epoxiconazole for protectant and curative activity against wheat leaf rust (Puccinia triticina, PUCCRT), and Septoria blotch (Septoria tritici, SEPTTR).
(§2) The compound was formulated at six rates (8.1, 2.7, 0.9, 0.3, 0.1, 0.03 ppm) and applied to wheat plants alone and in all combinations of it with pyraclostrobin or epoxiconazole using the methods described in section “Fungicidal Activity” above. Plants were inoculated three days before treatment (3DC) or one day after treatment (1DP), incubated in a greenhouse until disease was expressed, and visually rated (reported as % DC Obs) as described above. The expected control was calculated using the Colby equation (Colby, S. R. Calculation of the synergistic and antagonistic response of herbicide combinations. Weeds 1967 15, 20-22.).
(§3) The following equation was used to calculate the expected activity of mixtures containing two active ingredients, A and B: Expected=A+B−(A×B/100)
(§4) A=observed efficacy of active ingredient A at the same concentration as used in the mixture
(§5) B=observed efficacy of active ingredient B at the same concentration as used in the mixture

[9] = test system: Septoria tritici (SEPTTR); experiment: Synergy with pyraclostrobin or epoxiconazole against Septoria blotch; conditions: alone
Experimental: as §1, §2, §3, §4, §5

Row | Compound | pest or weed control at 200 ppm [1] | LC90 [2] | pest or weed control at 200 ppm [3] | pest or weed control at 200 ppm [4] | pest or weed control at 200 ppm [6] | further results
1 | Fc1cc(F)c2ncnc(NCCc3ccc(Oc4cc(C(F)(F)F)ccn4)cc3)c2c1F [Compound 31] | 80 to 100% | 50 to 200 µg/mL (≈ 108 to 431 µM) | 80 to 100% | 80 to 100% | 80 to 100% | LD50 at 14 days [5]: > 500 mg/kg
2 | ivermectin [reference compound] | – | – | – | – | – | Percent mortality [7]: 95%
3 | N#Cc1ccc(Oc2ccc(CCNc3ncnc4c(F)ccc(F)c34)cc2)nc1 [Compound 124] | 80 to 100% | 3.1 to 12.5 µg/mL (≈ 7.68 to 31 µM) | – | 80 to 100% | 80 to 100% | pest or weed control at 25 ppm [3]: 50 to 79%
4 | [O-][n+]1ccc(C(F)(F)F)c(Oc2ccc(CCNc3ncnc4c(F)ccc(F)c34)cc2)c1 [Compound 115] | 80 to 100% | – | 80 to 100% | 80 to 100% | 80 to 100% | Percent mortality [7]: 100%
5 | Fc1ccc(F)c2c(NCCc3ccc(Oc4ccc(C(F)(F)F)cn4)cc3)ncnc12 [Compound 1] | 80 to 100% | 0.49 µg/mL (≈ 1.1 µM) | 80 to 100% | 80 to 100% | 80 to 100% | –
6 | COC(=O)N(OC)c1ccccc1COc1ccn(-c2ccc(Cl)cc2)n1 [pyraclostrobin] | – | – | – | – | – | % DC Obs ([8]; 1DP PUCCRT, 0.1 ppm): 8%; % DC Obs ([8]; 3DC PUCCRT, 0.3 ppm): 4%; % DC Obs ([9]; 1DP SEPTTR, 0.3 ppm): 49%; % DC Obs ([9]; 3DC SEPTTR, 0.1 ppm): 14%
7 | Fc1ccc(F)c2c(NCCc3ccc(Oc4ccnc(C(F)(F)F)c4)cc3)ncnc12 [Example 11, (5,8-Difluoroquinazolin-4-yl)-{2-[4-(2-trifluoromethylpyridin-4-yloxy)-phenyl]-ethyl}-amine] | – | – | – | – | – | melting point: 95 to 96 °C
8 | Fc1cccc2c(NCCc3ccc(Oc4cc(C(F)(F)F)ccn4)cc3)ncnc12 [drawing 199, reference compound] | – | 3.1 to 12.5 µg/mL (≈ 7.24 to 29.2 µM) | – | – | – | –
9 | Fc1cc(Oc2cc(C(F)(F)F)ccn2)ccc1CCNc1ncnc2c(F)ccc(F)c12 [Compound 76] | 80 to 100% | – | 80 to 100% | 80 to 100% | 80 to 100% | Percent mortality [7]: 100%
10 | Fc1cc(F)c2ncnc(NCCc3ccc(Oc4cnccc4C(F)(F)F)c(Cl)c3)c2c1F [Compound 93] | 80 to 100% | – | 80 to 100% | 80 to 100% | – | Percent mortality [7]: 100%
11 | Fc1cccc2c(NCCc3ccc(Oc4cc(C(F)(F)F)ccn4)cc3)ncnc12 [drawing 198, reference compound] | – | – | – | – | – | LD50 at 14 days [5]: < 100 mg/kg
12 | Fc1cccc2c(NCCc3ccc(Oc4ccc(C(F)(F)F)cn4)cc3)ncnc12 [reference compound] | – | 0.12 µg/mL (≈ 0.28 µM) | – | – | – | –
13 | N#Cc1ccc(Oc2ccc(CCNc3ncnc4c(F)cccc34)cc2)nc1 [reference compound] | – | < 3.1 µg/mL | – | – | – | –
14 | COc1cc(CCNc2ncnc3c(F)ccc(F)c23)ccc1Oc1cc(C(F)(F)F)ccn1 [Compound 15] | 80 to 100% | – | 80 to 100% | 80 to 100% | 80 to 100% | % DC Obs ([8]; 1DP PUCCRT, 0.3 ppm): 33%; % DC Obs ([8]; 3DC PUCCRT, 0.3 ppm): 6%; % DC Obs ([8]; 3DC PUCCRT, 0.9 ppm): 52%; % DC Obs ([9]; 1DP SEPTTR, 2.7 ppm): 31%; % DC Obs ([9]; 3DC SEPTTR, 0.9 ppm): 22%
15 | COc1ccc(CCNc2ncnc3c(F)ccc(F)c23)c(C)c1 [Compound 42] | 80 to 100% | – | 80 to 100% | 80 to 100% | 80 to 100% | Percent mortality [7]: 6%
16 | Fc1cc(F)c2ncnc(NCCc3ccc(Oc4ccc(C(F)(F)F)cn4)cc3)c2c1F [Compound 74] | 80 to 100% | 1 µg/mL (≈ 2.15 µM) | 80 to 100% | 80 to 100% | 80 to 100% | –
17 | Fc1ccc([C@]2(Cn3cncn3)O[C@H]2c2ccccc2Cl)cc1 (racemic) [epoxiconazole] | – | – | – | – | – | % DC Obs ([8]; 1DP PUCCRT, 0.1 ppm): 0%; % DC Obs ([8]; 3DC PUCCRT, 0.1 ppm): 13%; % DC Obs ([9]; 1DP SEPTTR, 0.3 ppm): 36%; % DC Obs ([9]; 3DC SEPTTR, 0.3 ppm): 35%
18 | Fc1ccc(F)c2c(NCCc3ccc(Oc4nccc(C(F)(F)F)n4)cc3)ncnc12 [Compound 3] | 50 to 79% | – | 80 to 100% | 80 to 100% | 80 to 100% | Percent mortality [7]: 100%
19 | Fc1ccc(F)c2c(NCCc3ccc(Oc4cc(C(F)(F)F)ccn4)cc3)ncnc12 [Compound 6] | 80 to 100% | 12.5 to 50 µg/mL (≈ 28 to 112 µM) | 80 to 100% | 80 to 100% | 80 to 100% | LD50 at 14 days [5]: 100 to 500 mg/kg
20 | N#Cc1cc(Cl)ncc1Oc1ccc(CCNc2ncnc3c(F)ccc(F)c23)cc1 [Compound 125] | 80 to 100% | – | 80 to 100% | 80 to 100% | 80 to 100% | Percent mortality [7]: 0%
21 | Fc1ccc(F)c2c(NCCc3ccc(Oc4ccnc(Cl)c4)cc3)ncnc12 [Compound 107] | 80 to 100% | – | – | 80 to 100% | 80 to 100% | pest or weed control at 25 ppm [3]: 80 to 100%
22 | Fc1ccc(F)c2c(NCCc3ccc(Oc4ccnc(C(F)(F)F)c4Cl)cc3)ncnc12 [Compound 96] | 80 to 100% | – | 80 to 100% | 80 to 100% | 80 to 100% | –
23 | Fc1ccc(F)c2c(NCCc3cccc(Oc4cc(C(F)(F)F)ccn4)c3)ncnc12 [Compound 40] | 80 to 100% | – | – | 80 to 100% | 80 to 100% | pest or weed control at 25 ppm [3]: 50 to 79%
24 | COc1ccc(CCNc2ncnc3c(F)cc(F)c(F)c23)cc1Cl [Compound 86] | 0 to 49% | – | 0 to 49% | 0 to 49% | 80 to 100% | –
25 | COc1cc(C(F)(F)F)cc(Oc2ccc(CCNc3ncnc4c(F)ccc(F)c34)c(C)c2C)n1 [Compound 30] | 50 to 79% | – | 0 to 49% | 80 to 100% | 50 to 79% | –
